Assay results from US20220162191A1, “SMALL MOLECULE MODULATORS OF IL-17” (LEO PHARMA A/S, priority 2019, published 2022).
pEC50: −log10 of the molar value.

Each compound was assayed against T1, human IL-17AA (Homo sapiens, UniProt Q16552) (assay: IL-8 release assay in human epithelial keratinocytes adult (HEKa)). Details: 3 ng/ml human IL-17AA + 10 ng/ml human TNFalpha, 68-72 h, IL-8 by HTRF, read-out: Rel EC50 L-8 release assay.
T1 construct: host or cells: HEK (human embryonic kidney) cells
T1 sequence (Q16552 24-155) 1: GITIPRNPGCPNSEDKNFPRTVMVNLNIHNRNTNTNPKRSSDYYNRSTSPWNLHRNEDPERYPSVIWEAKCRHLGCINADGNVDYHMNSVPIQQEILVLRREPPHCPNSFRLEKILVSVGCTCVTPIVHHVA
T1 sequence (Q16552 24-155) 2: T1 sequence (Q16552 24-155) 1
Assay type: cell-based
Procedure, shortened: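 Adult human keratinocytes in Epilife with HKGS minus hydrocortisone, treated with compound then stimulated with final 3 ng/ml HEK-derived human IL-17AA plus 10 ng/ml TNF-alpha for 68–72 h at 37 °C; TNF-alpha alone defines 100% inhibition. Secreted IL-8 by HTRF; relative IC50 and Emax from four-parameter fits.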

Compound	pEC50
CC(C)n1cc(-c2ccc(Cl)c(C[C@H](NC(=O)C(C)(F)F)C(=O)Nc3ccc(-c4nncn4C)cc3)c2)ccc1=O [Example 283, N-[(1S)-1-[[2-chloro-5-(1-isopropyl-6-oxo-3-pyridyl)phenyl]methyl]-2-[4-(4-methyl-1,2,4-triazol-3-yl)anilino]-2-oxo-ethyl]-2,2-difluoro-propanamide]	< 6.00
CC(C)n1cc(-c2ccc(Cl)c(C[C@H](NC(=O)O[C@H](C)C(F)(F)F)C(=O)Nc3ccc(-c4nncn4C)cc3)c2)ccc1=O [Example 286, [(1R)-2,2,2-trifluoro-1-methyl-ethyl] N-[(1S)-1-[[2-chloro-5-(1-isopropyl-6-oxo-3-pyridyl)phenyl]methyl]-2-[4-(4-methyl-1,2,4-triazol-3-yl)anilino]-2-oxo-ethyl]carbamate]	< 6.00
CC(C)n1cc(-c2ccc(Cl)c(C[C@H](NC(=O)[C@@H]3CC3(F)F)C(=O)Nc3ccc(-c4nncn4C)cc3)c2)ccc1=O [Example 287, (1S)-N-[(1S)-1-[[2-chloro-5-(1-isopropyl-6-oxo-3-pyridyl)phenyl]methyl]-2-[4-(4-methyl-1,2,4-triazol-3-yl)anilino]-2-oxo-ethyl]-2,2-difluoro-cyclopropanecarboxamide]	< 6.00
CC(C)n1cc(-c2ccc(Cl)c(C[C@H](NC(=O)[C@H]3CC3(F)F)C(=O)Nc3ccc(-c4nncn4C)cc3)c2)ccc1=O [Example 288, (1R)-N-[(1S)-1-[[2-chloro-5-(1-isopropyl-6-oxo-3-pyridyl)phenyl]methyl]-2-[4-(4-methyl-1,2,4-triazol-3-yl)anilino]-2-oxo-ethyl]-2,2-difluoro-cyclopropanecarboxamide]	< 6.00
CC(C)n1cc(-c2ccc(Cl)c(C[C@H](NC(=O)C3CC(F)(F)C3)C(=O)Nc3ccc(-c4nncn4C)cc3)c2)ccc1=O [Example 291, N-[(1S)-1-[[2-chloro-5-(1-isopropyl-6-oxo-3-pyridyl)phenyl]methyl]-2-[4-(4-methyl-1,2,4-triazol-3-yl)anilino]-2-oxo-ethyl]-3,3-difluoro-cyclobutanecarboxamide]	< 6.00
CC(C)n1cc(-c2ccc(Cl)c(C[C@H](NC(=O)C3CCC3)C(=O)Nc3ccc(-c4nncn4C)cc3)c2)ccc1=O [Example 293, N-[(1S)-1-[[2-chloro-5-(1-isopropyl-6-oxo-3-pyridyl)phenyl]methyl]-2-[4-(4-methyl-1,2,4-triazol-3-yl)anilino]-2-oxo-ethyl]cyclobutanecarboxamide]	< 6.00
Cn1cnnc1-c1ccc(NC(=O)C(Cc2cc(-c3ccc(O)c(C(=O)N4CCOCC4)c3)ccc2Cl)NC(=O)c2ccnn2C)cc1 (centres unmarked) [Example 296, N-[1-[[2-chloro-5-[4-hydroxy-3-(morpholine-4-carbonyl)phenyl]phenyl]methyl]-2-[4-(4-methyl-1,2,4-triazol-3-yl)anilino]-2-oxo-ethyl]-2-methyl-pyrazole-3-carboxamide]	< 6.00
CC(C)n1cc(-c2ccc(Cl)c(CC(NC(=O)c3ccnn3C)C(=O)Nc3ccc(-c4ncnn4C)cc3)c2)ccc1=O (centres unmarked) [Example 301, N-[1-[[2-chloro-5-(1-isopropyl-6-oxo-3-pyridyl)phenyl]methyl]-2-[4-(2-methyl-1,2,4-triazol-3-yl)anilino]-2-oxo-ethyl]-2-methyl-pyrazole-3-carboxamide]	< 6.00
Cc1nocc1C(=O)NC(Cc1cc(-c2ccnc(C(=O)N(C)C3CC3)c2)ccc1Cl)C(=O)Nc1ccc(-c2nncn2C)cc1 (centres unmarked) [Example 306, N-[1-[[2-chloro-5-[2-[cyclopropyl(methyl)carbamoyl]-4-pyridyl]phenyl]methyl]-2-[4-(4-methyl-1,2,4-triazol-3-yl)anilino]-2-oxo-ethyl]-3-methyl-isoxazole-4-carboxamide]	< 6.00
CC(C)n1cc(-c2ccc(Cl)c(CC(NC(=O)C3(F)CC3)C(=O)Nc3ccc(-c4nncn4C)cc3)c2)cc(C(F)(F)F)c1=O (centres unmarked) [Example 307, N-[1-[[2-chloro-5-[1-isopropyl-6-oxo-5-(trifluoromethyl)-3-pyridyl]phenyl]methyl]-2-[4-(4-methyl-1,2,4-triazol-3-yl)anilino]-2-oxo-ethyl]-1-fluoro-cyclopropanecarboxamide]	< 6.00
Cn1cnnc1-c1ccc(NC(=O)C(Cc2cc(-c3ccc(C#N)cc3)ccc2Cl)NC(=O)c2ccnn2C)cc1 (centres unmarked) [Example 308, N-[1-[[2-chloro-5-(4-cyanophenyl)phenyl]methyl]-2-[4-(4-methyl-1,2,4-triazol-3-yl)anilino]-2-oxo-ethyl]-2-methyl-pyrazole-3-carboxamide]	< 6.00
Cc1cc(-c2ccc(Cl)c(CC(NC(=O)c3ccnn3C)C(=O)Nc3ccc(-c4nncn4C)cc3)c2)ccc1C#N (centres unmarked) [Example 309, N-[1-[[2-chloro-5-(4-cyano-3-methyl-phenyl)phenyl]methyl]-2-[4-(4-methyl-1,2,4-triazol-3-yl)anilino]-2-oxo-ethyl]-2-methyl-pyrazole-3-carboxamide]	< 6.00
Cc1n[nH]c(C)c1-c1ccc(NC(=O)[C@H](Cc2cc(N3CCOCC3)ccc2Cl)NC(=O)c2ccnn2C)cc1 [Example 311, N-[(1S)-1-[(2-chloro-5-morpholino-phenyl)methyl]-2-[4-(3,5-dimethyl-1H-pyrazol-4-yl)anilino]-2-oxo-ethyl]-2-methyl-pyrazole-3-carboxamide]	< 6.00

Further lines, results first:

pEC50	Compound
6.00 to 7.00	Cc1n[nH]c(C)c1-c1ccc(NC(=O)[C@H](Cc2cc(-c3ccc(CN4C[C@@H]5C[C@H]4CN5)cc3)ccc2Cl)NC(=O)C2(F)CC2)cc1 [Example 229, N-[(1S)-1-[[2-chloro-5-[4-[[(1S,4S)-2,5-diazabicyclo[2.2.1]heptan-2-yl]methyl]phenyl]phenyl]methyl]-2-[4-(3,5-dimethyl-1H-pyrazol-4-yl)anilino]-2-oxo-ethyl]-1-fluoro-cyclopropanecarboxamide]
< 6.00	CC(C)n1cc(-c2ccc(Cl)c(C[C@H](NC(=O)C(C)(C)F)C(=O)Nc3ccc(-c4nncn4C)cc3)c2)ccc1=O [Example 282, N-[(1S)-1-[[2-chloro-5-(1-isopropyl-6-oxo-3-pyridyl)phenyl]methyl]-2-[4-(4-methyl-1,2,4-triazol-3-yl)anilino]-2-oxo-ethyl]-2-fluoro-2-methyl-propanamide]
6.00 to 7.00	Cc1n[nH]c(C)c1-c1ccc(NC(=O)[C@H](Cc2cc(-c3cccc(CN4C[C@H]5C[C@@H]4CN5)c3)ccc2Cl)NC(=O)C2(F)CC2)cc1 [Example 310, N-[(1S)-1-[[2-chloro-5-[3-[[(1R,4R)-2,5-diazabicyclo[2.2.1]heptan-2-yl]methyl]phenyl]phenyl]methyl]-2-[4-(3,5-dimethyl-1H-pyrazol-4-yl)anilino]-2-oxo-ethyl]-1-fluoro-cyclopropanecarboxamide]
6.00 to 7.00	COCCOCCn1cc(-c2cccc(-c3ccc(Cl)c(CC(NC(=O)c4ccnn4C)C(=O)Nc4ccc(-c5c(C)n[nH]c5C)cc4)c3)c2)nn1 (centres unmarked) [Example 312, N-[1-[[2-chloro-5-[3-[1-[2-(2-methoxyethoxy)ethyl]triazol-4-yl]phenyl]phenyl]methyl]-2-[4-(3,5-dimethyl-1H-pyrazol-4-yl)anilino]-2-oxo-ethyl]-2-methyl-pyrazole-3-carboxamide]
> 7.00	COCCOCCn1cc(-c2ccc(-c3ccc(Cl)c(CC(NC(=O)c4ccnn4C)C(=O)Nc4ccc(-c5c(C)n[nH]c5C)cc4)c3)cc2)nn1 (centres unmarked) [Example 313, N-[1-[[2-chloro-5-[4-[1-[2-(2-methoxyethoxy)ethyl]triazol-4-yl]phenyl]phenyl]methyl]-2-[4-(3,5-dimethyl-1H-pyrazol-4-yl)anilino]-2-oxo-ethyl]-2-methyl-pyrazole-3-carboxamide]
> 7.00	Cc1n[nH]c(C)c1-c1ccc(NC(=O)[C@H](Cc2cc(-c3ccnc(N4CCSCC4)n3)ccc2Cl)NC(=O)C2(F)CC2)cc1 [Example 314, N-[(1S)-1-[[2-chloro-5-(2-thiomorpholinopyrimidin-4-yl)phenyl]methyl]-2-[4-(3,5-dimethyl-1H-pyrazol-4-yl)anilino]-2-oxo-ethyl]-1-fluoro-cyclopropanecarboxamide]
> 7.00	Cc1n[nH]c(C)c1-c1ccc(NC(=O)[C@H](Cc2cc(-c3ccnc(N4CC[S+]([O-])CC4)n3)ccc2Cl)NC(=O)C2(F)CC2)cc1 [Example 315, N-[(1S)-1-[[2-chloro-5-[2-(1-oxidothiomorpholin-1-ium-4-yl)pyrimidin-4-yl]phenyl]methyl]-2-[4-(3,5-dimethyl-1H-pyrazol-4-yl)anilino]-2-oxo-ethyl]-1-fluoro-cyclopropanecarboxamide]
> 7.00	Cc1n[nH]c(C)c1-c1ccc(NC(=O)[C@H](Cc2cc(-c3ccnc(N4CCC5(COC5)C4)n3)ccc2Cl)NC(=O)C2(F)CC2)cc1 [Example 316, N-[(1S)-1-[[2-chloro-5-[2-(2-oxa-7-azaspiro[3.4]octan-7-yl)pyrimidin-4-yl]phenyl]methyl]-2-[4-(3,5-dimethyl-1H-pyrazol-4-yl)anilino]-2-oxo-ethyl]-1-fluoro-cyclopropanecarboxamide]
> 7.00	Cc1n[nH]c(C)c1-c1ccc(NC(=O)[C@H](Cc2cc(-c3ccnc(N4CCC5(CC4)COC5)n3)ccc2Cl)NC(=O)C2(F)CC2)cc1 [Example 317, N-[(1S)-1-[[2-chloro-5-[2-(2-oxa-7-azaspiro[3.5]nonan-7-yl)pyrimidin-4-yl]phenyl]methyl]-2-[4-(3,5-dimethyl-1H-pyrazol-4-yl)anilino]-2-oxo-ethyl]-1-fluoro-cyclopropanecarboxamide]
> 7.00	Cc1n[nH]c(C)c1-c1ccc(NC(=O)[C@H](Cc2cc(-c3ccnc(N4CC5COCC5C4)n3)ccc2Cl)NC(=O)C2(F)CC2)cc1 (stereo partly drawn) [Example 318, N-[(1S)-1-[[5-[2-(1,3,3a,4,6,6a-hexahydrofuro[3,4-c]pyrrol-5-yl)pyrimidin-4-yl]-2-chloro-phenyl]methyl]-2-[4-(3,5-dimethyl-1H-pyrazol-4-yl)anilino]-2-oxo-ethyl]-1-fluoro-cyclopropanecarboxamide]
